What was measured:
[1] = tested on: blood cells in fresh venous whole blood samples (HCT 48%); assay: Evaluation of hemolytic effect of hemolytic reagents (first absorbance/turbidity); assay type: cell-based; conditions: for first absorbance: 750 nm, below 0.05 = hemolytic effect; for hemolytic effects on the blood cells in the blood sample: in most concentration ranges
Method: To select hemolytic reagents with a hemolytic effect capable of lysing the blood cells in a blood sample, five candidate hemolytic reagents were selected. Each candidate hemolytic reagent was applied to fresh venous whole blood samples (HCT 48%). The background measurement values (i.e., the first turbidity or first absorbance) of samples treated with each candidate hemolytic reagent were measured. Specifically, the first absorbance of the samples was measured at a wavelength of 750 nm using the A1Care Analyzer by i-SENS, Inc.
The five candidate hemolytic reagents are listed below Table 1. […] A candidate hemolytic reagent was evaluated to have a hemolytic effect on the blood sample if the first turbidity of the sample was below 0.05.

[2] = tested on: immune reaction between CRP and Anti-CRP antibodies; assay: Evaluation of antigen-antibody reactivity by hemolytic reagents (second absorbance, 7-Level CRP Serum Samples)
Method: The concentrations of each candidate hemolytic reagent were determined as follows Table 2, taking into account the sample influence, including hematocrit.
Furthermore, each candidate hemolytic reagent was applied to 7-Level CRP Serum Samples, followed by an immune reaction between the hemolyzed samples and latex particles coated with Anti-CRP antibodies. Specifically, latex particles coated with Anti-CRP antibodies supplied by RANDOX were concentrated and stabilized with the addition of a stabilizer. The immune reaction was configured to occur between the hemolyzed samples and the latex particles coated with Anti-CRP antibodies.
After the immune reaction, the absorbance of each sample after the immune reaction (referred to as the second absorbance or second turbidity) was measured. Specifically, the second absorbance of the samples was measured at a wavelength of 750 nm using the A1Care Analyzer by i-SENS, Inc.
As for the control group, the experiment was designed to measure the second absorbance after the immune reaction between the 7-Level CRP Serum Samples without the addition of any hemolytic reagent and the latex particles coated with Anti-CRP antibodies. Additionally, the concentrations of the 7-Level CRP Serum Samples were varied from 0 to 195.8 mg/L, and the second absorbance was measured for each sample.

[3] = tested on: immunoreagent (R2) containing Anti-CRP antibodies (latex particles coated with Anti-CRP antibodies); assay: Accelerated stability by stabilizers (1), 50° C., 7 days, 1-Level CRP Serum Sample; assay type: physicochemical; conditions: stabilizer concentrations as in Table 4
Method: To select a stabilizer that ensures the storage stability of the immunoreagent (R2) containing Anti-CRP antibodies, five candidate stabilizers were chosen. Each candidate stabilizer was added to latex particles coated with Anti-CRP antibodies and dried. The reagent solution and 1-Level CRP Serum Sample (CRP 60 mg/L) were added to the dried composition to facilitate the immune reaction between CRP and Anti-CRP antibodies. After the immune reaction, the absorbance was measured to obtain the baseline measurement value for storage on day 0. […]
Furthermore, the dried compositions, containing each candidate stabilizer added to latex particles coated with Anti-CRP antibodies, were stored in an oven at 50° C. […] The immune reaction between CRP and Anti-CRP antibodies was carried out, and the absorbance after the immune reaction was measured to obtain the measurement values for storage days 1, 2, 3, 4, 5, 6, and 7.
As for the control group, the experiment was configured to measure the absorbance after the immune reaction between the 1-Level CRP Serum Sample (CRP 60 mg/L) without the addition of any stabilizer and latex particles coated with Anti-CRP antibodies.
Furthermore, deviations (Bias) were calculated based on the baseline measurement value and the measurement values obtained over the storage period. […]

[4] = tested on: immunoreagent (R2) containing Anti-CRP antibodies (latex particles coated with Anti-CRP antibodies); assay: Accelerated stability by stabilizers (2), 50° C., 7 days, 3-Level CRP Serum Samples; assay type: physicochemical; conditions: 100 mM
Method: To select a stabilizer for ensuring the storage stability of the immunoreagent (R2) containing Anti-CRP antibodies, two candidate stabilizers (Trehalose and Sucrose) with confirmed through Experimental Example 4 storage stability effects were prepared. Each candidate stabilizer was added to latex particles coated with Anti-CRP antibodies and dried. The reagent solution and 3-Level CRP Serum Samples (CRP 10 mg/L, 50 mg/L, 150 mg/L) were added to the dried compositions, and the immune reaction between CRP and Anti-CRP antibodies was carried out. After the immune reaction, the absorbance was measured to obtain the baseline measurement value of storage on day 0.
Each candidate stabilizer was added to latex particles coated with Anti-CRP antibodies, and the dried compositions were stored in an oven at 50° C. The reagent solution was stored separately under refrigeration. At 1-day intervals over a period of 7 days, the reagent solution and 3-Level CRP Serum Samples (CRP 10 mg/L, 50 mg/L, 150 mg/L) were added to the dried compositions containing each candidate stabilizer. The immune reaction between CRP and Anti-CRP antibodies was conducted, and the absorbance after the immune reaction was measured to obtain the measurement values for storage days 1, 2, 3, 4, 5, 6, and 7.
Based on the baseline measurement value and the measurement values obtained during the storage period, deviations (Bias) were calculated.
Additionally, for each condition, the experiment was repeated 5 times, and precision (CV) was calculated.
The two candidate stabilizers are listed below Table 5, and stabilizers with deviations (Bias) measured within 20% throughout the storage period were evaluated as effective for ensuring the storage stability of the immunoreagent (R2). Stabilizers with precision (CV) measured within 10% were evaluated as having excellent precision.

[5] = CRP Serum (50 mg/L, Mid), up to storage day 7
[6] = CRP Serum (150 mg/L, High), up to storage day 7

dissolution of the dried Anti-CRP antibodies (visually confirmed) [3]	deviation (Bias) compared to baseline on day 0 [4, 5]	deviation (Bias) compared to baseline on day 0 [4, 6]	Compound	hemolytic effects on the blood cells in the blood sample [1]	other results
			CCCCCCCCCCCCCC(=O)NCCC[N+](C)(C)CCCS(=O)(=O)[O-] [ASB-14]	exhibited hemolytic effects	first absorbance ([1]; reagent concentration range 0.01-0.03 (w/v %)): greater than 0.05; first absorbance ([1]; reagent concentration range 0.04-0.20 (w/v %)): less than 0.05; decrease of absorbance corresponding to the CRP concentration compared to the control group ([2]; 750 nm, 0.05% ASB-14, CRP serum 0 to 195.8 mg/L): ≥ 50%
dissolved properly	≤ 20%	≤ 20%	OC[C@H]1O[C@@](CO)(O[C@H]2O[C@H](CO)[C@@H](O)[C@H](O)[C@H]2O)[C@@H](O)[C@@H]1O [Sucrose]		deviation (Bias) compared to baseline on day 0 ([4]; CRP Serum (10 mg/L, Low), up to storage day 7): ≤ 20%
dissolved properly	≤ 20%	≤ 20%	OC[C@H]1O[C@H](O[C@H]2O[C@H](CO)[C@@H](O)[C@H](O)[C@H]2O)[C@H](O)[C@@H](O)[C@@H]1O [Trehalose]		deviation (Bias) compared to baseline on day 0 ([4]; CRP Serum (10 mg/L, Low), storage days 5 and 7): > 20%
			Sodium deoxycholate [SDC]	exhibited hemolytic effects	first absorbance ([1]; reagent concentration range 0.10-0.11 (w/v %)): greater than 0.05; first absorbance ([1]; reagent concentration range 0.12-0.20 (w/v %)): less than 0.05; effect of the hemolytic reaction on the antigen-antibody reaction between CRP and Anti-CRP antibodies ([2]; 0.13% SDC, 0.03% Saponin): did not affect the antigen-antibody reaction
